Patent US20020022826A1, “Burst electrode” (priority 2000, published 2002)

Details: bare metal electrodes, nitrogen atmosphere
Description: Using stainless steel electrodes in aqueous NaPSS electrolyte, conditions were developed for the reproducible synthesis, loading, and release of bioactive cations from PPy/PSS films. After PPy/PSS film preparation, the polymer-modified electrodes were removed from the electrolyte, washed with water, and their redox properties studied by cyclic voltammetry (CV).

NCCc1ccc(O)c(O)c1 [Dopamine, dopamine]
potential at which dopamine oxidizes: +0.6 V vs. Ag/AgCl
